Data on 2 molecules can be found in article PMC2976827 (Neuropharmacology, 2010).

This experiment deals with T1, GluK1 (Rattus norvegicus, UniProt P22756, DEL560-681).
T1 sequence (P22756 446-559): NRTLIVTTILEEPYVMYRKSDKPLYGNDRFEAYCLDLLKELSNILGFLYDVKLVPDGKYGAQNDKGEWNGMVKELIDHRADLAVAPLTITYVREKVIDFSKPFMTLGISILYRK
T1 sequence (P22756 682-821): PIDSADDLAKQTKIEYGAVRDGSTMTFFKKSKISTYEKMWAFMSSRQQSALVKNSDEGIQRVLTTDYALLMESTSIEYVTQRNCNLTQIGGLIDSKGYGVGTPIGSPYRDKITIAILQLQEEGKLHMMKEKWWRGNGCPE
Briefly: crystal structure. In kind it is binding.

Structures are written as SMILES.

The term Kd denotes the equilibrium constant for the complex coming apart. Read a low Kd as tighter binding. Take `Cc1cn(C[C@H](N)C(=O)O)c(=O)n(Cc2c(C(=O)O)sc(Br)c2Br)c1=O` [UBP315, (S)-1-(2-Amino-2-carboxyethyl)-3-(2-carboxy-4,5-dibromothiophene-3-yl-methyl)-5-methylpyrimidine-2,4-dione]: binding was put at a Kd of 33 nM.
The molecule `N[C@@H](Cn1cc(Br)c(=O)n(Cc2ccsc2C(=O)O)c1=O)C(=O)O` [UBP318, (S)-1-(2-amino-2-carboxyethyl)-5-bromo-3-(2-carboxythiophene-3-yl-methyl)pyrimidine-2,4-dione] came in with a Kd of 186 nM. Against the preceding molecule, the Kd is about 5.6-fold higher.
